In patent US20230304010A1, “COMPOSITIONS AND METHODS FOR TREATING VIRAL INFECTIONS” (priority 2020, published 2023):
Where two headings read alike, the source gives them in different places.

Key:
[1] = system: ACE2 : SARS-CoV-2 Spike Alpha (B1.1.7/United Kingdom) variant; assay type: binding; conditions: read-out: IC50, Alpha (B117)
[2] = system: ACE2 : SARS-CoV-2 Spike Beta (B1.351/South Africa) variant; assay type: binding; conditions: read-out: IC50, Beta (B1312)
[3] = system: ACE2 : SARS-CoV-2 Spike Gamma (P1/Brazil) variant; assay type: binding
[4] = system: ACE2 : SARS-CoV-2 Spike Delta (B1 617 2/India) variant; assay type: binding; conditions: read-out: IC50, Delta (B1617)
[5] = system: ACE2 : SARS-CoV-2 Spike Epsilon (B1429) variant; assay type: binding
[6] = system: SARS-CoV-2 variants (Alpha/Beta/Delta); assay type: cell-based

Row | Compound | IC50 [1] | IC50 [2] | IC50 [3] | IC50 [4] | IC50 [5] | fold stronger anti-SARS-CoV-2 activity than Remdesivir [6] | IC50 (SARS-CoV-2 Alpha variant; read-out: Alpha (B117) IC50) | IC50 (SARS-CoV-2 Alpha variant; read-out: IC50, Alpha (B117)) | IC50 (SARS-CoV-2 Beta variant; read-out: Beta (B1312) IC50) | IC50 (SARS-CoV-2 Beta variant; read-out: IC50, Beta (B1312)) | IC50 (SARS-CoV-2 Delta variant; read-out: Delta (B1617) IC50) | IC50 (SARS-CoV-2 Delta variant; read-out: IC50, Delta (B1617)) | inhibitory activity against all SARS-CoV2 variant viruses [6]
1 | CC(=O)N[C@@H](CCC(=O)O)C(=O)N[C@@H](CCC(N)=O)C(=O)N[C@@H](C)C(=O)N[C@@H](CCCCN)C(=O)N[C@H](C(=O)N[C@@H](Cc1ccccc1)C(=O)N[C@@H](CC(C)C)C(=O)N[C@@H](CC(=O)O)C(=O)N[C@@H](CCCCN)C(=O)N[C@@H](Cc1ccccc1)C(=O)N[C@@H](CC(N)=O)C(=O)N[C@@H](Cc1c[nH]cn1)C(=O)N[C@@H](CCC(=O)O)C(=O)N[C@@H](C)C(=O)N[C@@H](CCC(=O)O)C(=O)N[C@@H](CC(=O)O)C(=O)N[C@@H](CC(C)C)C(=O)N[C@@H](Cc1ccccc1)C(=O)NCCCCCC(=O)N[C@@H](CC(C)C)C(=O)N[C@@H](Cc1c[nH]c2ccccc12)C(=O)N[C@@H](CCCNC(=N)N)C(=O)N[C@@H](C)C(=O)N[C@@H](CC(C)C)C(=O)N[C@@H](Cc1c[nH]c2ccccc12)C(=O)N[C@@H](CCCNC(=N)N)C(=O)N[C@@H](CC(C)C)C(=O)N[C@@H](Cc1c[nH]c2ccccc12)C(=O)N[C@@H](CCCNC(=N)N)C(=O)N[C@@H](CO)C(=O)N[C@@H](CC(C)C)C(=O)N[C@@H](Cc1c[nH]c2ccccc12)C(=O)N[C@@H](CCCNC(=N)N)C(=O)N[C@@H](CC(C)C)C(=O)N[C@@H](CC(C)C)C(=O)N[C@@H](Cc1c[nH]c2ccccc12)C(=O)N[C@@H](CCCCN)C(N)=O)[C@@H](C)O [Seq33] | 17.8 ± 9 nM | 28.8 ± 10 nM | 20.2 ± 5 nM | 25.7 ± 8 nM | 31.4 ± 9 nM | 200 fold |  |  |  |  |  |  | 
2 | Ac-N*GVEGFNK*Ava-LWRALWRLWRSLWRLLWK-NH2 [Seq17] | 136 ± 21 nM | 75.2 ± 21 nM | 87.2 ± 20 nM | 48.2 ± 11 nM | 94.7 ± 17 nM |  | 125 ± 24 nM | 125 ± 24 nM | 118 ± 15 nM | 118 ± 15 nM | 25.7 ± 10 nM | 25.7 ± 10 nM | 
3 | GGCCAAACTGTCACTAAGAAA (chemistry not given here) [DIVC-6] |  |  |  |  |  |  | 84.5 nM |  | 58.5 nM |  | 91.3 nM |  | potent inhibitory activity
